≈ marks a conversion by molar mass, not a printed value.
What was measured:
Assay in all cases: MIC, microdilution broth method (NCCLS)
Assay type in all cases: cell-based
Settings in all cases: 35° C., 16-20 hours
[1] = tested on: E. faecalis ATCC29212
Description: (§1) Minimal inhibitory concentration (MIC) has been an indicator of in vitro antibacterial activity widely used in the art. The in vitro antimicrobial activity of the compounds was determined by the microdilution broth method following the test method from the National Committee for Clinical Laboratory Standards (NCCLS). This method is described in the NCCLS Document M7-A4, Vol.17, No.2, “Methods for Dilution Antimicrobial Susceptibility Test for Bacteria that Grow Aerobically—Fourth Edition”, which is incorporated herein by reference.
(§2) In this method two-fold serial dilutions of drug in cation adjusted Mueller-Hinton broth are added to wells in microdilution trays. The test organisms are prepared by adjusting the turbidity of actively growing broth cultures so that the final concentration of test organism after it is added to the wells is approximately 5×10^4 CFU/well.
(§3) Following inoculation of the microdilution trays, the trays are incubated at 35° C. for 16-20 hours and then read. […] The amount of growth in the wells containing the test compound is compared with the amount of growth in the growth-control wells (no test compound) used in each tray. As set forth in Table 1, compounds of the present invention were tested against a variety of Gram positive and Gram negative pathogenic bacteria resulting in a range of activities depending on the organism tested.

[2] = tested on: S. aureus ATCC29213
Description: as §1, §2, §3

[3] = tested on: S. pneumoniae ATCC49619
Description: as §1, §2, §3

| MIC (C: E. faecalis ATCC29212) [1] | MIC (B: S. aureus ATCC29213) [2] | MIC (D: S. pneumoniae ATCC49619) [3] | SMILES |
| --- | --- | --- | --- |
| 0.25 µg/mL (≈ 0.293 µM) | 0.5 µg/mL (≈ 0.587 µM) | 0.06 µg/mL (≈ 0.0704 µM) | CC[C@H]1OC(=O)[C@H](C)C(=O)[C@H](C)[C@@H](O[C@@H]2O[C@H](C)C[C@H](N(C)C)[C@H]2O)[C@](C)(OC(=O)NOC/C=C/c2cccc(-c3ncccn3)c2)C[C@@H](C)C(=O)[C@H](C)[C@H]2NC(=O)O[C@@]21C [Compound 616] |
| 0.12 µg/mL (≈ 0.141 µM) | 0.25 µg/mL (≈ 0.294 µM) | 0.03 µg/mL (≈ 0.0353 µM) | CC[C@H]1OC(=O)[C@H](C)C(=O)[C@H](C)[C@@H](O[C@@H]2O[C@H](C)C[C@H](N(C)C)[C@H]2O)[C@](C)(OC(=O)NOC/C=C/c2ccc(-c3ccccn3)cc2)C[C@@H](C)C(=O)[C@H](C)[C@H]2NC(=O)O[C@@]21C [Compound 617] |
| 0.06 µg/mL (≈ 0.0741 µM) | 0.12 µg/mL (≈ 0.148 µM) | 0.06 µg/mL (≈ 0.0741 µM) | CCC1OC(=O)C(C)C(=O)C(C)C(OC2OC(C)CC(N(C)C)C2O)C(C)(OC(=O)OCC=Cc2ccc3ncccc3c2)CC(C)C(=O)C(C)C2NC(=O)OC12C (stereo not drawn) [Compound 40] |
| 0.25 µg/mL (≈ 0.323 µM) | 1 µg/mL (≈ 1.29 µM) | 0.06 µg/mL (≈ 0.0774 µM) | CC[C@H]1OC(=O)[C@H](C)C(=O)[C@H](C)[C@@H](O[C@@H]2O[C@H](C)C[C@H](N(C)C)[C@H]2O)[C@](C)(OC(=O)NOC/C=C/c2cccnc2)C[C@@H](C)C(=O)[C@H](C)[C@H]2NC(=O)O[C@@]21C [Compound 615] |
| 0.06 µg/mL (≈ 0.0715 µM) | 0.12 µg/mL (≈ 0.143 µM) | 0.12 µg/mL (≈ 0.143 µM) | CCC1OC(=O)C(C)C(=O)C(C)C(OC2OC(C)CC(N(C)C)C2O)C(C)(OC(=O)OCCCc2ccc(-c3ncccn3)cc2)CC(C)C(=O)C(C)C2NC(=O)OC12C (stereo not drawn) [Compound 139] |
| 0.12 µg/mL (≈ 0.143 µM) | 0.25 µg/mL (≈ 0.298 µM) | 0.03 µg/mL (≈ 0.0357 µM) | CC[C@H]1OC(=O)[C@H](C)C(=O)[C@H](C)[C@@H](O[C@@H]2O[C@H](C)C[C@H](N(C)C)[C@H]2O)[C@](C)(OC(=O)NOC/C=C/c2ccc(-n3cccn3)cc2)C[C@@H](C)C(=O)[C@H](C)[C@H]2NC(=O)O[C@@]21C [Compound 619] |
| 0.25 µg/mL (≈ 0.293 µM) | 0.25 µg/mL (≈ 0.293 µM) | 0.03 µg/mL (≈ 0.0352 µM) | CCC1OC(=O)C(C)C(=O)C(C)C(OC2OC(C)CC(N(C)C)C2O)C(C)(OC(=O)NOCC=Cc2ccc(-c3cccnn3)cc2)CC(C)C(=O)C(C)C2NC(=O)OC12C (stereo not drawn) [Compound 607] |
| 0.06 µg/mL (≈ 0.0727 µM) | 0.12 µg/mL (≈ 0.145 µM) | ≦0.015 μg/mL | CCC1OC(=O)C(C)C(=O)C(C)C(OC2OC(C)CC(N(C)C)C2O)C(C)(OC(=O)OCC=Cc2ccc(-n3cccn3)cc2)CC(C)C(=O)C(C)C2NC(=O)OC12C (stereo not drawn) [Compound 21] |
| 0.12 µg/mL (≈ 0.14 µM) | 0.25 µg/mL (≈ 0.292 µM) | 0.06 µg/mL (≈ 0.0702 µM) | CCC1OC(=O)C(C)(F)C(=O)C(C)C(OC2OC(C)CC(N(C)C)C2O)C(C)(OC(=O)OCC=Cc2ccc(-c3ncccn3)cc2)CC(C)C(=O)C(C)C2NC(=O)OC12C (stereo not drawn) [Compound 288] |
| 0.12 µg/mL (≈ 0.141 µM) | 0.25 µg/mL (≈ 0.294 µM) | 0.03 µg/mL (≈ 0.0353 µM) | CCC1OC(=O)C(C)C(=O)C(C)C(OC2OC(C)CC(N(C)C)C2O)C(C)(OC(=O)NOCC#Cc2ccc(-c3ncccn3)cc2)CC(C)C(=O)C(C)C2NC(=O)OC12C (stereo not drawn) [Compound 602] |

| SMILES | MIC (C: E. faecalis ATCC29212) [1] | MIC (B: S. aureus ATCC29213) [2] | MIC (D: S. pneumoniae ATCC49619) [3] |
| --- | --- | --- | --- |
| CC[C@H]1OC(=O)[C@H](C)C(=O)[C@H](C)[C@@H](O[C@@H]2O[C@H](C)C[C@H](N(C)C)[C@H]2O)[C@](C)(OC(=O)NOC/C=C/c2cnc3ccccc3c2)C[C@@H](C)C(=O)[C@H](C)[C@H]2NC(=O)O[C@@]21C [Compound 620] | 0.12 µg/mL (≈ 0.145 µM) | 0.5 µg/mL (≈ 0.606 µM) | 0.03 µg/mL (≈ 0.0364 µM) |

Source: patent US6825170B2, “6-O-acyl ketolide antibacterials” (Ortho-McNeil Pharmaceutical, Inc., priority 2001, dated 2004)
